Source: patent US8952008B2, “Chemical compounds” (Pfizer Limited, priority 2012, dated 2015)

molecular target: GABRA2-GABRB2-GABRG2 chloride currents in HEK cells (Homo sapiens (Human), UniProt P18507+P47869); assay: QPatch electrophysiological recording, % enhancement of GABA current (α2 PAM); assay type: cell-based; conditions: approximately EC10 GABA, −60 mV, whole-cell patch clamp
Protocol: Human Embryonic Kidney (HEK) cells were transfected with a GABRA2-GABRB2-GABRG2 construct using standard techniques.
For QPatch electrophysiology testing, cells were harvested from flasks by enzymatic dissociation and resuspended in serum-free medium. Cells were typically used for electrophysiological experiments within 24 to 72 hours after splitting.
(§1) Cell suspension containing HEK cells expressing GABRA2-GABRB2-GABRG2 was placed on the QPatch instrument in serum-free medium into the instrument's cell stirrer. The instrument washed the cells once using extracellular buffer and then dispensed them into the QPlate HT measurement plate at a concentration of 3-4-e6/ml. […] All recordings were made at room temperature (22-24° C.).
(§2) Current records were acquired at 1 KHz and filtered at 0.3 KHz using the Bessel filter. Series resistance compensation was set to 80% in the QPatch software.
(§3) All compounds were dissolved in dimethyl sulfoxide to make 30 mM or 10 mM stock solutions, which were then diluted to 1000 times the desired final concentration in dimethyl sulfoxide. These were diluted into extracellular solution to attain the final concentrations desired. […] This concentration of dimethyl sulfoxide was present in all samples.
(§4) Currents were recorded at −60 mV, using an approximately EC10 concentration of gamma-aminobutyric acid (GABA). This dose of gamma-aminobutyric acid was applied for 6 seconds and washed off using extracellular buffer as an unrecorded application using the pipetting system of the QPatch instrument. The same dose of gamma-aminobutyric acid was then applied for 9 seconds, then the test compound was co-applied with this dose of gamma-aminobutyric acid for 15 seconds, and washed off using the extracellular solution using the pipetting system of the QPatch instrument.
(§5) Compound effect (% enhancement of gamma-aminobutyric acid current) was calculated using the following formula: [((peak modulator current amplitude-leak)−(GABA current amplitude-leak))/(GABA current amplitude-leak)]*100, where ‘leak’ is leak current at −60 mV, ‘peak modulator current amplitude’ is the current elicited by co-application of gamma-aminobutyric acid and test compound, and ‘GABA current amplitude’ is the current elicited by application of gamma-aminobutyric acid alone.

Sequence of GABRA2-GABRB2-GABRG2 chloride currents in HEK cells (P47869 29-451): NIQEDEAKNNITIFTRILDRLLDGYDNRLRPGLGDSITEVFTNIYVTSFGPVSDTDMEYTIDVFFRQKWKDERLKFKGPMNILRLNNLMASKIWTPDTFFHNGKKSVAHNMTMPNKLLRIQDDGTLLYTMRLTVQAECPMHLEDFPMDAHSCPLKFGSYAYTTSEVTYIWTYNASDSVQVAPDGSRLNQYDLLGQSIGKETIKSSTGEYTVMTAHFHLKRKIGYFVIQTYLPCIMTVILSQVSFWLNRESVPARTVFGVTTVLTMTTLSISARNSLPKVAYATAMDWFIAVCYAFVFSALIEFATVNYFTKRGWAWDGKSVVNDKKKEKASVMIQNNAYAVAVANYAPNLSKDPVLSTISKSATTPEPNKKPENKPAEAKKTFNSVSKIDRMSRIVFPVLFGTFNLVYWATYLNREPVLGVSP
Sequence of GABRA2-GABRB2-GABRG2 chloride currents in HEK cells (P47870 26-512 partner): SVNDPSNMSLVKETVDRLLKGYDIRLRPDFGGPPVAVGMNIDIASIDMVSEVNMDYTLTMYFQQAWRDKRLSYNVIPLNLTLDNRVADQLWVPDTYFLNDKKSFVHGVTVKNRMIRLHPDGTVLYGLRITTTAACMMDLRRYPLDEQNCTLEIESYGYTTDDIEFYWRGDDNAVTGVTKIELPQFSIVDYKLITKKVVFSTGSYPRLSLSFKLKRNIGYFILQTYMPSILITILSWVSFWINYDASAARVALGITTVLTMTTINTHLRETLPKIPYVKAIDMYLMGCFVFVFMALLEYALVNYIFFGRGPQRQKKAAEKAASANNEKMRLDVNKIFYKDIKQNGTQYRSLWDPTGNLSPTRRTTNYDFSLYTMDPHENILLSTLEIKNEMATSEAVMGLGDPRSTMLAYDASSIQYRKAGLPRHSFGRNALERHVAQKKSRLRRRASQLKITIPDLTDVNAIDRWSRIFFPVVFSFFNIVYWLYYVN
Sequence of GABRA2-GABRB2-GABRG2 chloride currents in HEK cells (P18507 40-475): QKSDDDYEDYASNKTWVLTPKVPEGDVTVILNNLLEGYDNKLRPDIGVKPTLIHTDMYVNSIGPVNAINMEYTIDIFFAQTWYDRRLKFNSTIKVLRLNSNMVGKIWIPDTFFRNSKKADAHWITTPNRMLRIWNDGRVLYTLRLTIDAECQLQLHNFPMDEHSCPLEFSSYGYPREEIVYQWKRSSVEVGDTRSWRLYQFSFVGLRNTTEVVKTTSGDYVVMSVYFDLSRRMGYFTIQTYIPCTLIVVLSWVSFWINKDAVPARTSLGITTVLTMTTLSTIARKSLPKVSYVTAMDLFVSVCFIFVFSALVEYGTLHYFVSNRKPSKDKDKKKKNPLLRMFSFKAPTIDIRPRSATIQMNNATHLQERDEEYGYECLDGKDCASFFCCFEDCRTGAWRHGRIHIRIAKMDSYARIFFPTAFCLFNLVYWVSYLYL

In order of falling “α2 PAM (%)” value:
1. CCn1cnc2c(-c3ccc(F)c(-c4ccc(S(=O)(=O)CC)cc4)c3)cnnc21 [Example 49, 7-Ethyl-4-[4′-(ethylsulfonyl)-6-fluorobiphenyl-3-yl]-7H-imidazo[4,5-d]pyridazine]  83.9%
2. CCn1cnc2c(-c3ccc(C#N)c(-c4ccc(S(=O)(=O)CC)cc4OC)c3)cnnc21 [Example 47, 5-(7-Ethyl-7H-imidazo[4,5-c]pyridazin-4-yl)-4′-(ethylsulfonyl)-2′-methoxy-[1,1′-biphenyl]-2-carbonitrile]  68.7%
3. CCn1cnc2c(-c3ccc(Cl)c(-c4ccc(S(=O)(=O)CC)cc4OC)c3)cnnc21 [Example 45, 4-(6-Chloro-4′-(ethylsulfonyl)-2′-methoxy-[1,1′-biphenyl]-3-yl)-7-ethyl-7H-imidazo[4,5-c]pyridazine]  61.1%
4. CCn1cnc2c(-c3ccc(F)c(-c4ccc(S(=O)(=O)CC)cc4C(F)F)c3)cnnc21 [Example 14, 4-(2′-(Difluoromethyl)-4′-(ethylsulfonyl)-6-fluoro-[1,1′-biphenyl]-3-yl)-7-ethyl-7H-imidazo[4,5-c]pyridazine]  58.0%
5. CCn1cnc2c(-c3ccc(F)c(-c4ccc(S(=O)(=O)CC)cc4F)c3)cnnc21 [Example 15, 4-(4′-Ethanesulfonyl-6,2′-difluoro-biphenyl-3-yl)-7-ethyl-7H-imidazo[4,5-c]pyridazine]  39.4%
6. CCn1cnc2c(-c3ccc(F)c(-c4ccc(S(C)(=O)=O)cc4)c3)cnnc21 [Example 9, 7-Ethyl-4-[6-fluoro-4′-(methylsulfonyl)biphenyl-3-yl]-7H-imidazo[4,5-c]pyridazine]  38.9%
7. NS(=O)(=O)c1ccc(-c2cc(-c3cnnc4c3ncn4C3CC3)ccc2F)cc1 [Example 20, 5′-(7-Cyclopropyl-7H-imidazo[4,5-c]pyridazin-4-yl)-2′-fluoro-[1,1′-biphenyl]-4-sulfonamide]  36.3%

molecular target: GABRA1-GABRB3-GABRG2 chloride currents in HEK cells (Homo sapiens (Human), UniProt P14867+P18507); assay: QPatch electrophysiological recording, % enhancement of GABA current (α1 PAM); assay type: cell-based; conditions: approximately EC10 GABA, −60 mV, whole-cell patch clamp
Protocol: as §1, §2, §3, §4, §5
The ability of the compounds of the formula (I) to modulate the GABA channels expressing the al subunit (or GABRA1) can also be measured using an assay analogous to that described above but replacing the GABRA2-GABRB2-GABRG2 gene construct with the GABRA1-GABRB3-GABRG2 gene construct. All other conditions remain the same including the same cell line and conditions for cell growth.

Sequence of GABRA1-GABRB3-GABRG2 chloride currents in HEK cells (P14867 28-456): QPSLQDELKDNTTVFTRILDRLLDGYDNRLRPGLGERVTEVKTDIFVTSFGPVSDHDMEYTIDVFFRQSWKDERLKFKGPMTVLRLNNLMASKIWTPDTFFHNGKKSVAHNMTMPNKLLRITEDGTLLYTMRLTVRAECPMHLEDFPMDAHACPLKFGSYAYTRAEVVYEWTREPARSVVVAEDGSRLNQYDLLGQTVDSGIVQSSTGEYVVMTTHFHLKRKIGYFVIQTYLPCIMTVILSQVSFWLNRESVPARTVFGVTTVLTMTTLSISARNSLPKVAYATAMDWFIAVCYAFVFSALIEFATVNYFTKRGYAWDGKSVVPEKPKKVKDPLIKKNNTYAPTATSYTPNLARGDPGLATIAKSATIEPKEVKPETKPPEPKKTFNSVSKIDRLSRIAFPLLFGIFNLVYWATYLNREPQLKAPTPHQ
Sequence of GABRA1-GABRB3-GABRG2 chloride currents in HEK cells (P28472 26-473 partner): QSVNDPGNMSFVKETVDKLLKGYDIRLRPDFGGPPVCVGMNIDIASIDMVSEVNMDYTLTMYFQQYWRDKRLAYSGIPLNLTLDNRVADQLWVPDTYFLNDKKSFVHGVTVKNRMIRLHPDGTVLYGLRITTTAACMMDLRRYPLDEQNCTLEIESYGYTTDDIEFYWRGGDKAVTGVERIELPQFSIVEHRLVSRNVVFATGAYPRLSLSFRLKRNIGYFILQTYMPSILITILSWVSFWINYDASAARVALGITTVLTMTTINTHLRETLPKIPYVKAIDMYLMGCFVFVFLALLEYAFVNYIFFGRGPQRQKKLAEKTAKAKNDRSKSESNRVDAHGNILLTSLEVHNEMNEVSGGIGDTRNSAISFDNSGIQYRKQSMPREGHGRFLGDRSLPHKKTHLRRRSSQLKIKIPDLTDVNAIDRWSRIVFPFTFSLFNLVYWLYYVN
Sequence of GABRA1-GABRB3-GABRG2 chloride currents in HEK cells (P18507 40-475): as the sequence (P18507 40-475) above

In order of rising “α1 PAM (%)” value:
1. CCn1cnc2c(-c3ccc(F)c(-c4ccc(S(=O)(=O)CC)cc4C(F)F)c3)cnnc21 [Example 14, 4-(2′-(Difluoromethyl)-4′-(ethylsulfonyl)-6-fluoro-[1,1′-biphenyl]-3-yl)-7-ethyl-7H-imidazo[4,5-c]pyridazine]  13.3%
2. CCn1cnc2c(-c3ccc(F)c(-c4ccc(S(=O)(=O)CC)cc4OC)c3)cnnc21 [Example 4, 7-Ethyl-4-[4′-(ethylsulfonyl)-6-fluoro-2′-methoxybiphenyl-3-yl]-7H-imidazo[4,5-c]pyridazine]  18.1%

molecular target: human recombinant GABA A receptor containing the alpha2, beta2, and gamma3 subunits (Homo sapiens, UniProt P47869+Q99928); assay: Radioligand competition binding assay with [3H]Ro-15-1788 (Flumazenil); conditions: not given;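 also: membranes from HEK cells expressing the receptor, incubated with radioligand to equilibrium, filter-bound radioactivity counted, Ki reported as geometric mean of replicate runs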

In order of rising Ki:
1. CCn1cnc2c(-c3ccc(F)c(-c4ccc(S(=O)(=O)C5CCC5)cc4OC)c3)cnnc21 [Example 6, 4-(4′-(Cyclobutylsulfonyl)-6-fluoro-2′-methoxy-[1,1-biphenyl]-3-yl)-7-ethyl-7H-imidazo[4,5-c]pyridazine]  9.51 nM
2. CCS(=O)(=O)c1ccc(-c2cc(-c3cnnc4c3ncn4C(C)C)ccc2F)c(OC)c1 [Example 40, 4-(4′-(Ethylsulfonyl)-6-fluoro-2′-methoxy-[1,1′-biphenyl]-3-yl)-7-isopropyl-7H-imidazo[4,5-c]pyridazine]  14 nM
3. CCS(=O)(=O)c1ccc(-c2cc(-c3cnnc4c3ncn4C(C)C)ccc2F)c(Cl)c1 [Example 39, 4-(2′-Chloro-4′-(ethylsulfonyl)-6-fluoro-[1,1′-biphenyl]-3-yl)-7-isopropyl-7H-imidazo[4,5-c]pyridazine]  14.4 nM
4. NS(=O)(=O)c1ccc(-c2cc(-c3cnnc4c3ncn4C3CC3)ccc2F)cc1 [Example 20, 5′-(7-Cyclopropyl-7H-imidazo[4,5-c]pyridazin-4-yl)-2′-fluoro-[1,1′-biphenyl]-4-sulfonamide]  19 nM
5. CCS(=O)(=O)c1ccc(-c2cc(-c3cnnc4c3ncn4C3(C)CC3)ccc2F)cc1 [Example 27, 4-[4′-(Ethylsulfonyl)-6-fluorobiphenyl-3-yl]-7-(1-methylcyclopropyl)-7H-imidazo[4,5-c]pyridazine]  34.8 nM
6. CC(C)n1cnc2c(-c3ccc(F)c(-c4ccc(S(=O)(=O)C(C)C)cc4C#N)c3)cnnc21 [Example 35, 2′-Fluoro-5′-(7-isopropyl-7H-imidazo[4,5-c]pyridazin-4-yl)-4-(isopropylsulfonyl)-[1,1′-biphenyl]-2-carbonitrile]  38.8 nM
7. COc1cc(S(=O)(=O)C(C)C)ccc1-c1cc(-c2cnnc3c2ncn3C2CC2)ccc1F [Example 23, 7-Cyclopropyl-4-(6-fluoro-4′-(isopropylsulfonyl)-2′-methoxy-[1,1′-biphenyl]-3-yl)-7H-imidazo[4,5-c]pyridazine]  40.5 nM
8. CCn1cnc2c(-c3cccc(-c4ccc(S(C)(=O)=O)cc4)c3)cnnc21 [Example 16, 7-Ethyl-4-[4′-(methylsulfonyl)biphenyl-3-yl]-7H-imidazo[4,5-c]pyridazine]  56 nM
9. CCS(=O)(=O)c1ccc(-c2cc(-c3cnnc4c3ncn4C3CC3)ccc2F)c(F)c1 [Example 22, 7-Cyclopropyl-4-(4′-(ethylsulfonyl)-2′,6-difluoro-[1,1′-biphenyl]-3-yl)-7H-imidazo[4,5-c]pyridazine]  67.8 nM
10. CCS(=O)(=O)c1ccc(-c2cc(-c3cnnc4c3ncn4C3CCC3)ccc2F)cc1 [Example 28, 7-Cyclobutyl-4-[4′-(ethylsulfonyl)-6-fluorobiphenyl-3-yl]-7H-imidazol[4,5-c]pyridazine]  74.3 nM
11. CC(C)n1cnc2c(-c3ccc(F)c(-c4ccc(S(=O)(=O)C(C)C)cc4F)c3)cnnc21 [Example 36, 4-(2′,6-Difluoro-4′-(isopropylsulfonyl)-[1,1′-biphenyl]-3-yl)-7-isopropyl-7H-imidazo[4,5-c]pyridazine]  87.4 nM
12. CCn1cnc2c(-c3cccc(-c4ccc5c(c4)CCS5(=O)=O)c3)cnnc21 [Example 17, 4-[3-(1,1-dioxido-2,3-dihydro-1-benzothiophen-5-yl)phenyl]-7-ethyl-7H-imidazo[4,5-c]pyridazine]  102 nM
13. CCn1cnc2c(-c3ccc(F)c(-c4ccc(S(=O)(=O)C(C)C)cc4C#N)c3)cnnc21 [Example 5, 5′-(7-Ethyl-7H-imidazo[4,5-c]pyridazin-4-yl)-2′-fluoro-4-(isopropylsulfonyl)-[1,1′-biphenyl]-2-carbonitrile]  108 nM
14. CCS(=O)(=O)c1ccc(-c2cc(-c3cnnc4c3ncn4C3CCCC3)ccc2F)c(OC)c1 [Example 43, 7-Cyclopentyl-4-(4′-(ethylsulfonyl)-6-fluoro-2′-methoxy-[1,1′-biphenyl]-3-yl)-7H-imidazo[4,5-c]pyridazine]  118 nM
15. CCCn1cnc2c(-c3ccc(F)c(-c4ccc(S(=O)(=O)CC)cc4)c3)cnnc21 [Example 30, 4-[4′-(Ethylsulfonyl)-6-fluorobiphenyl-3-yl]-7-propyl-7H-imidazo[4,5-d]pyridazine]  120 nM
16. CCS(=O)(=O)c1ccc(-c2cc(-c3cnnc4c3ncn4C3CCC3)ccc2F)c(F)c1 [Example 26, 7-Cyclobutyl-4-(4′-(ethylsulfonyl)-2′,6-difluoro-[1,1′-biphenyl]-3-yl)-7H-imidazo[4,5-c]pyridazine]  147 nM
17. CC(C)S(=O)(=O)c1ccc(-c2cc(-c3cnnc4c3ncn4C3CC3)ccc2F)c(C#N)c1 [Example 18]  296 nM
18. CCn1cnc2c(-c3ccc(OC)c(-c4ccc(S(=O)(=O)CC)cc4F)c3)cnnc21 [Example 44, 7-Ethyl-4-(4′-(ethylsulfonyl)-2′-fluoro-6-methoxy-[1,1′-biphenyl]-3-yl)-7H-imidazo[4,5-c]pyridazine]  678 nM
19. CCn1cnc2c(-c3ccc(OC)c(-c4ccc(S(=O)(=O)CC)cc4OC)c3)cnnc21 [Example 46, 7-Ethyl-4-(4′-(ethylsulfonyl)-2′,6-dimethoxy-[1,1′-biphenyl]-3-yl)-7H-imidazol[4,5-c]pyridazine]  1750 nM

same assay, conditions: read-out: GABA-α2 Ki; competition with [3H]Ro-15-1788; HEK cell membranes; geometric mean of at least two replicates

With “7-Ethyl-4-[4-fluoro-3-(2-methyl-1,1-dioxido-2,3-di hydro-1,2-benzisothiazol-5-yl)phenyl]-7H-imidazo[4,5-d]pyridazine [Example 50]” the Ki was 69.5 nM.
